Assay [1] concerns the target T1, 5-hydroxytryptamine receptor 1A (Rattus norvegicus, UniProt P19327).
T1 sequence (P19327 whole entry): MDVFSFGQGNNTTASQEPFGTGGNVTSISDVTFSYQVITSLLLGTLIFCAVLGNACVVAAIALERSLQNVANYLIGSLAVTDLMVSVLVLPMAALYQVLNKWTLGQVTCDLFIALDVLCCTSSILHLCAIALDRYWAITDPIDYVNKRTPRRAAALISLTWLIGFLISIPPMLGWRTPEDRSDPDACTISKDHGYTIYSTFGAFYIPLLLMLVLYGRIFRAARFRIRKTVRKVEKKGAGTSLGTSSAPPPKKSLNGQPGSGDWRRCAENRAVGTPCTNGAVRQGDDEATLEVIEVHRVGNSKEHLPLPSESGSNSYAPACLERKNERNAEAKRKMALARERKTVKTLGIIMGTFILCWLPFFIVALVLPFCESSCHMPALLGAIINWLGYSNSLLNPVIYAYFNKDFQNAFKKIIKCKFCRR
The assay can be described thus: Binding affinity towards 5-hydroxytryptamine 1A receptor in rat hippocampus using [3H]8-OH-DPAT. It counts as tissue-based.

Assay [2] deals with 5-hydroxytryptamine receptor 1D (Cavia porcellus) (UniProt Q60484). Nature of the assay: Compound at oral dose of 45 mg/kg was tested for percent inhibition against 5-hydroxytryptamine 1D receptor causes hypothermia in guinea pig. On the set-up: dose 45 mg/kg. It is filed as functional, organism-based.
The target in assay [3] is 5-hydroxytryptamine receptor 1D (Cavia porcellus, UniProt Q60484). Nature of the assay: In vitro binding affinity towards 5-hydroxytryptamine 1D receptor in guinea-pig striatum in presence of BMY-7378 and mesulergine. It is filed as tissue-based.
For assay [4], the target named is 5-hydroxytryptamine receptor 1D (Cavia porcellus) (UniProt Q60484). Nature of the assay: Oral effective dose against hypothermia in the guinea pig caused by stimulation of central 5-hydroxytryptamine 1D receptors by the agonist GR-46611. It counts as functional.
The species entered for the next assay is Canis familiaris. The assay can be described thus: Tested in vitro for its ability to block 5-HT induced contractile responses in dog isolated saphenous vein. It is filed as functional, Canis lupus familiaris.
The species entered for assay [5] is Oryctolagus cuniculus. Nature of the assay: Tested for its ability to block 5-HT2A induced contractile responses in rabbit isolated aorta. It counts as functional.
Assay [6] concerns the target 5-hydroxytryptamine receptor 1D (Cavia porcellus) (UniProt Q60484). Nature of the assay: Oral effective dose against hypothermia in the guinea pig caused by stimulation of central 5-hydroxytryptamine 1D receptor by the agonist GR-46611. It counts as functional.
For assay [7], the target named is 5-hydroxytryptamine receptor 1B (Rattus norvegicus, UniProt P28564). Nature of the assay: In vitro binding affinity towards 5-hydroxytryptamine 1B receptor in rat striatal membrane with [125I]- iodocyanopindolol. It counts as cell membranes, Striatum.
The species named for assay [8] is Oryctolagus cuniculus. Nature of the assay: Tested in vitro for its ability to block 5-HT2A induced contraction of rabbit isolated aorta. It is filed as functional.
Assay [9] concerns the target 5-hydroxytryptamine receptor 1D (Cavia porcellus) (UniProt Q60484). The assay can be described thus: Compound at 45 mg/kg was tested for the inhibition of hypothermia in the guinea pig caused by stimulation of central 5-hydroxytryptamine 1D receptors by the agonist GR-46611. On the set-up: dose 45 mg/kg. It is filed as functional, organism-based.
Assay [10] has the same target. Nature of the assay: Compound at 50 mg/kg was tested for the inhibition of hypothermia in the guinea pig caused by stimulation of central 5-hydroxytryptamine 1D receptors by the agonist GR-46611. On the set-up: dose 50 mg/kg. It counts as functional, organism-based.
For assay [11] the target is unchanged. The assay can be described thus: Oral effective dose against hypothermia in the guinea pig caused by stimulation of central 5-hydroxytryptamine 1D receptors by the agonist GR-46611;range is 0.2-1.2. It is filed as functional.
The target is the same in assay [12]. Nature of the assay: Compound at 3 mg/kg was tested for the inhibition of hypothermia in the guinea pig caused by stimulation of central 5-hydroxytryptamine 1D receptors by the agonist GR-46611. It counts as functional, organism-based. On the set-up: dose 3 mg/kg.
In assay [13] the target is T1, 5-hydroxytryptamine receptor 1A. Nature of the assay: Binding affinity towards 5-hydroxytryptamine 1A receptor in rat hippocampus with [3H]8-OH-DPAT. It is filed as tissue-based.
For assay [14], the target named is 5-hydroxytryptamine receptor 1D (Cavia porcellus) (UniProt Q60484). Nature of the assay: Oral effective dose against hypothermia in the guinea pig caused by stimulation of central 5-hydroxytryptamine 1D receptors by the agonist GR-46611; range is 2-9. It counts as functional.

Chain of 5-hydroxytryptamine receptor 1D (Q60484 whole entry): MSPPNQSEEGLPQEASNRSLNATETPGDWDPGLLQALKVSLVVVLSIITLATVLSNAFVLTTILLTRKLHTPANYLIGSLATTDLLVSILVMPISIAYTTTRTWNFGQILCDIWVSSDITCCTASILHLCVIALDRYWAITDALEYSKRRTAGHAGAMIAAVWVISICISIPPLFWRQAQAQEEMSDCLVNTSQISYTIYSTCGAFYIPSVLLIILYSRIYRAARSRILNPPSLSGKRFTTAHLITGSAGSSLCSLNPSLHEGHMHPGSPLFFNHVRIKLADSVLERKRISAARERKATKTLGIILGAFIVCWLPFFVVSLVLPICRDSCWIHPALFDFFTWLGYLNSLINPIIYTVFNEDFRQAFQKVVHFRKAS
Chain of 5-hydroxytryptamine receptor 1D (Cavia porcellus) (Q60484 whole entry): as above
Chain of 5-hydroxytryptamine receptor 1B (P28564 whole entry): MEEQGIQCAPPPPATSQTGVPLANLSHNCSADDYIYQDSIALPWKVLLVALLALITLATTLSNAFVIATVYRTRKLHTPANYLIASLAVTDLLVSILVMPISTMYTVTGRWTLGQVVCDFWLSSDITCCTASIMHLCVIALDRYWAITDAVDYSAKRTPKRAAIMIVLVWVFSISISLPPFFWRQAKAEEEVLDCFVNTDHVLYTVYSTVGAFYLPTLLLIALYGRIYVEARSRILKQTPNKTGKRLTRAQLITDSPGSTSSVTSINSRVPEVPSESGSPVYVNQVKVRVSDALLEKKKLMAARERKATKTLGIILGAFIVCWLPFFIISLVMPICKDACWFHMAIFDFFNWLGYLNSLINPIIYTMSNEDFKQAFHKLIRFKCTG

In the case of `COc1ccc(C(=O)Nc2ccc(-c3ccc(C=O)cc3C)cc2)cc1CCCN(C)C`, the Ki in assay [1] was 5010 nM; in assay [3], 6.31 nM. In assay [2], this compound showed an inhibition below 30%. In addition, the 50% effect level in [4] (ED50) was put at a dose of 45 mg/kg. Moreover, the pKB worked out at 8.4 in the assay listed under Canis familiaris and 6.3 in the assay filed under Oryctolagus cuniculus [5].
Regarding `COc1ccc(C(=O)Nc2ccc(-c3ccc(C(=O)O)cc3C)cc2)cc1CCCN(C)C`, the inhibition constant (Ki) in [1] was above 10000 nM; in assay [3], 31.6 nM. Also, the figures for the pKB in the assay filed under Canis familiaris and in the assay filed under Oryctolagus cuniculus [5] were 8.7 and 5.7, respectively.
For `COc1ccc(NC(=O)c2ccc(-c3ccc(C(=O)N(C)C)cc3C)cc2)cc1N1CCN(C)CC1`, the Ki is 251 nM in [1], 5.01 nM in assay [3] and 6.31 nM in [7]. In assay [6], this compound gave an ED50 of 0.67 mg/kg. Also, the pKB came out at 9.2 in the assay filed under Canis familiaris and 4.9 in the assay listed under Oryctolagus cuniculus [8].
Turning to `CCOc1ccc(NC(=O)c2ccc(OC)c(CCCN(C)C)c2)cc1`, the negative logarithm of the KB (pKB) in the assay filed under Canis familiaris worked out at 6.9; in the assay listed under Oryctolagus cuniculus [5] it was 6.2.
As for `COc1ccc(C(=O)Nc2ccc(-c3ccc(CO)cc3C)cc2)cc1CCCN(C)C`, the inhibition in [9] worked out at 52%. The median effective dose (ED50) in [4] stood at 45 mg/kg. For the same compound, the negative logarithm of the KB (pKB) was 8.5 in the assay filed under Canis familiaris and 5.9 in the assay filed under Oryctolagus cuniculus [5].
Turning to `COc1ccc(C(=O)Nc2ccc(-c3ccncc3)cc2)cc1N1CCN(C)CC1`, in assay [3], the inhibition constant (Ki) is 3.16 nM. In assay [4], this compound came in with an ED50 above 45 mg/kg. Further, the negative logarithm of the KB (pKB) was 7.9 in the assay listed under Canis familiaris and 6.5 in the assay filed under Oryctolagus cuniculus [8].
For `COc1ccc(C(=O)Nc2ccc(-c3ccncc3)cc2)cc1CCCN(C)C`, the Ki was 20000 nM in assay [1] and 10 nM in assay [3]. In [10], this compound displayed an inhibition below 30%. The negative-log KB (pKB) in the assay listed under Canis familiaris is 7.8; in the assay filed under Oryctolagus cuniculus [5], 6.3.
For the compound `COc1ccc(C(=O)Nc2ccc(-c3ccc(-c4noc(C)n4)cc3C)cc2)cc1N1CCN(C)CC1`, the Ki in [1] was 1260 nM; in [3], 6.31 nM; in assay [7], 6.31 nM. This compound also yielded an ED50 in [11] of 0.5 mg/kg. The negative-log KB (pKB) in the assay listed under Canis familiaris is 8.2; in the assay filed under Oryctolagus cuniculus [8] it was 7.8.
With `COCCOC(=O)c1ccc(-c2ccc(NC(=O)c3ccc(OC)c(CCCN(C)C)c3)cc2)c(C)c1`, the inhibition in [12] came out at 66%; in [9] it was 55%. Further, the Ki in [3] is 3.16 nM. Further, the ED50 in [4] came to 45 mg/kg. Moreover, the negative-log KB (pKB) in the assay filed under Canis familiaris worked out at 8.4; in the assay listed under Oryctolagus cuniculus [5], 6.2.
`COc1ccc(NC(=O)c2ccc(-c3ccncc3)cc2)cc1N1CCN(C)CC1`: the Ki in [13] was 1260 nM; in assay [3], 5.01 nM. Also, the ED50 in [14] was 5 mg/kg. The negative logarithm of the KB (pKB) stood at 8 in the assay filed under Canis familiaris and 6.5 in the assay listed under Oryctolagus cuniculus [8].

The Ki is the equilibrium dissociation constant of an inhibitor or competing ligand from its target. Broadly, the inhibition is the percentage by which the read-out fell short of the control. Low values mean a response near the control, high ones a response far below the control. For orientation: ED50 means the midpoint of the dose-response relation. Low values mean greater potency, high ones weaker potency. By pKB is commonly meant the KB on a negative log10 scale, so that one unit is a factor of ten. A lower pKB goes with a high KB.

The values are drawn from ChEMBL document CHEMBL1127581, “Evolution of a novel series of [(N,N-dimethylamino)propyl]- and piperazinylbenzanilides as the first selective 5-HT1D antagonists” (J Med Chem, 1994).
